Results on three molecules are retold here after patent US9107889B2, “Compositions comprising an NO donor and a dithiolane and their use for improvement of sexual function” (Encrypta GmbH, priority 2005, dated 2015).

The structures appear in SMILES notation.

Data set [1] deals with erectile dysfunction (ED). Nature of the data set: Clinical case reports: erectile function, International Index of Erectile Function (IIEF) score. The format is in vivo, human. From the text: ED is clinically assessed by the application of the International Index of Erectile Function (IIEF Scale). The scale consists of 5 items related to erectile function scored from never (1 points) to always (5 points). 21-25 points translate to the absence of ED, 16-20 points relate to a mild ED, 11-15 points relate to a moderate ED and 5-10 points translate to a severe ED.
(§1) A person suffered since 3 months from worsening of erection (reduction of penile tension) and of a slight reduction of libido. Their IIEF count at the examination was 9. All biochemical parameters and hormones were within the normal range. The Doppler sonography of the penile vessels was normal. A challenge test with Silfenadil was positive, thereby excluding an organic pathology of the erectile dysfunction (ED). […] Psychogenic ED was diagnosed after examination. […] Arginine (5 g) and 600 mg α-lipoic acid were taken orally 30 minutes prior intercourse. After therapy, erection normalized. The IIEF score improved from 9 to 21 points.
A person complained since a week about insufficient erection. The person started sexual life with regularly intercourse twice a week. 3 months ago, they changed the sexual partner. At the 1st intercourse with the new partner, they experienced overexcitement. Since that time erection worsened, with an IIEF score of 8 points. The biochemical and hormonal values were within the normal range. The diagnosis was psychogenic ED and failure expectation syndrome. […] After change to 4 g arginine and 300 mg α-lipoic acid, the erection improved. The IIEF score improved from 8 to 12 points. In the meantime, the patient changed to chronic intake of 1 g arginine+100 mg α-lipoic acid daily. Occasionally, they take on demand prior intercourse additional 4 g arginine+300 mg α-lipoic acid.
(§2) A patient complained about worsening of erection since 7 years. Sexual intercourse was only possible in selected position. In addition, they suffered from premature ejaculation. Their libido remained intact. The IEFF score at diagnosis was 11. The diagnosis was physical ED and premature ejaculation. 600 mg α-lipoic acid was given as single dose and arginine was given in 4 single doses over the day of 2 g. The erection improved and the intercourse was prolonged from 1-2 minutes to 7 minutes. The IEFF score changed from 11 to 15 points. The 4 single doses have been changed to a single dose of 10 g arginine, taken together with the α-lipoic acid.
A patient (company manager with associated psychological stress) complained about reduced erection and reduced libido since the last 13 years. The morning reactions retained. […] The diagnosis was psychogenic ED and manager syndrome. […] The IIEF score improved from 9 to 24 points. For chronic intake, the daily dose of arginine has been reduced to 2 g, with no change of the α-lipoic acid intake.
(§3) A patient complained about worsening of erection and premature ejaculation. After administration of Silfenadil and Verdenafil, the erection improved; however, the premature ejaculations remained. The diagnosis was psychogenic ED and premature ejaculation. […] However, 200 mg thioctic acid together with 10 g arginine led to an improvement of the IIEF from 8 to 20 points. The duration of intercourse was extended from 1 to 4 minutes.

For a further data set, the system named is premature ejaculation. Kind of data set: Clinical case reports: duration of intercourse / premature ejaculation. The format is in vivo, human. As to conditions: Case 5; Silfenadil and Verdenafil. The procedure: as §2, §3
A person was able to perform intercourse only after nasal intake of isoamylnitrite since 5 years. However, intercourse was still unsatisfactory due to unpredictable erections and premature ejaculations. The diagnosis was physical erectile dysfunction and premature ejaculation. […]

Data set [2] deals with erectile dysfunction (ED). Nature of the data set: Challenge test with Silfenadil. The format is in vivo, human. The settings on record: Case 1; positive excludes organic pathology of ED. The procedure:
as §1

The nature of data set [3]: Adverse events in the clinical cases. The format is in vivo, human. The settings on record: Case 1. The procedure: as §1
None of the cases reported adverse events due to the intake of the combination partners. Attributes of cardiovascular dysfunction were not observed. Acutely, oral liquid presentations were applied, chronically both liquid and solid presentations.

For the next data set, the system named is loss of libido in women. Nature of the data set: Clinical case report: female sexual function (libido, orgasm, IFSF questionnaire). It is filed as in vivo, human. As to conditions: Case 6; arginine alone 3 g daily increased to 10 g. The source says: Female sexual function can be assessed by the Index of Female Sexual Function (IFSF), a 9-item self-assessment questionnaire. The IFSF is much more comprehensive in respect of sexual function assessment compared to the IIEF. Parameters to be assessed are discomfort during intercourse, degree of vaginal dryness, number of attempts to intercourse, rate and degree of sexual desire, level of satisfaction with sex life and relationship, degree of clitoral sensation and quality of orgasm.
A person experienced loss of libido after they have born their first child. Intercourse was often painful due to diminished […]. […] Since two years, they regularly attend with their spouse marriage counseling. […] The dose was increased weekly by 100 mg. […] The ISFS questionnaire improved (10 points). They reported that their partnership has improved. Marriage counseling has been aborted.

The conditions of data set [4]: cited from earlier work.

Turning to `CCCc1nn(C)c2c(=O)[nH]c(-c3cc(S(=O)(=O)N4CCN(C)CC4)ccc3OCC)nc12` [Silfenadil], in data set [1] (Case 5, psychogenic ED and premature ejaculation, Silfenadil and Verdenafil), the erection after administration entry is “improved”. For the same molecule, the “premature ejaculations after administration” value in the data set with premature ejaculation was “remained”. The challenge test result in data set [2] is on record as “positive”. For the same molecule, in data set [3], the “side effect evoked by administration” value is given as “severe redness of face”.

Turning to `N=C(N)NCCC[C@H](N)C(=O)O` [arginine], the “change of IIEF score” value in data set [1] (Case 2, psychogenic ED, baseline IIEF 8, oral intake of 4 g arginine alone) is “did not change”. Besides, the “effect on ED / premature ejaculation” value in data set [1] (Case 5, 10 g arginine on top of basic treatment (Silfenadil, Verdenafil)) is given as “without any effect”. For the same molecule, the “effect on loss of libido / absent orgasm” value in the data set on loss of libido in women is on record as “did not improve the situation”.

For orientation: pKa means the negative logarithm of the acid dissociation constant. In the case of `O=C(O)CCCCC1CCSS1` (stereo not drawn) [α-lipoic acid], the “change of IIEF score” value in data set [1] (Case 1, psychogenic ED, baseline IIEF 9, oral intake of 600 mg α-lipoic acid alone) was “did not change”. The effect on erection result in data set [1] (Case 4, psychogenic ED, single dose 200 mg α-lipoic acid alone) is “without any effect”; in data set [1] (Case 4, α-lipoic acid alone increased to 600 mg) it was “did improve the situation”. The pKa in data set [4] is 5.3.
